Source: patent US11008295B2, “Compounds having antiinfective, antitumoral and antifungal activity” (priority 2017, dated 2021)
Like-named read-outs stand apart in the source and are kept apart here.

What was measured:
[1] = test system: CAL33 cell line (head and neck); assay: MTT assay, antitumor activity; type: cell-based
A. terreus = assay: Antifungal disk diffusion susceptibility test (CLSI M44); type: cell-based
Experimental: (§1) Filamentous fungi and yeasts strains, from clinical origin, were supplied by Microbiology Service from The Princess Hospital, Madrid. They are detailed in Table III.
(§2) Filamentous fungi and yeast cells suspensions in distilled water was prepared from a culture of 24-48 h, depending on species, in Sabouraud agar. Each suspension was adjusted to a fixed size inoculum of 1-5×10^8 CFU/ml with a spectrophotometer (Ferraro, M J National Committee for Clinical Laboratory Standards. 2000).
(§3) Antifungal susceptibility tests were developed following the standardized methodology detailed in document CLSI: M44-4: Method for Antifungal Disk diffusion susceptibility testing of yeasts consisting of disk diffusion on agar Muller-Hinton (supplemented with 2% glucose).

C. lusitaniae = assay: as above; type: cell-based
Experimental: as §1, §2, §3

A. fumigatus = assay: as above; type: cell-based
Experimental: as §1, §2, §3

C. albicans = assay: as above; type: cell-based
Experimental: as §1, §2, §3

A. flavus = assay: as above; type: cell-based
Experimental: as §1, §2, §3

C. tropicalis = assay: as above; type: cell-based
Experimental: as §1, §2, §3

C. glabrata = assay: as above; type: cell-based
Experimental: as §1, §2, §3

C. guilliermondii = assay: as above; type: cell-based
Experimental: as §1, §2, §3

A. niger = assay: as above; type: cell-based
Experimental: as §1, §2, §3

HIV = assay: microbe, parasite or virus in culture; type: cell-based; settings: for safety index: anti-HIV activity/toxicity profile, MT-2 cells
Text: Assessment of in vitro antiviral activity is usually performed to estimate parameters of antiviral potency and efficacy represented by the percentage of inhibition of HIV activity or IC50. The assay utilized is based on the use of recombinant viruses in which the nef gene, […] for in vitro HIV replication, has been replaced by a Renilla reporter gene so that viral replication can be quantified directly (Garcia-Perez J et al, J Med Virol. 2007 February; 79(2):127-37). The assay was performed infecting MT-2 cells or PHA-activated PBMCs/IL-2 with viral supernatants obtained previously. The study was development in AIDS Immunopathology Unit, National Center of Microbiology, Institute of Health Carlos III, Majadahonda, Madrid, Spain.
All data are expressed as percentage relative to a control with DMSO at the same concentration. Antiviral activity and toxicity curves were performed to the compound at different concentrations.

HT29 cell line (colon) = assay: MTT assay, antitumor activity; type: cell-based
B. cereus = assay: Kirby-Bauer disk diffusion susceptibility test; type: cell-based, Bacillus cereus; settings: B. cereus; zone of inhibition; 200 μg/disc
Experimental: (§4) Bacterial strains, from clinical origin, were supplied by the National Center for Microbiology, Institute of Health Carlos III (Majadahonda, Madrid). They are detailed in Table I.
(§5) Bacterial cells suspension in sterile saline was prepared from a culture of 24-72 h, depending on bacterial species, in Mueller-Hinton Agar with 5% sheep blood. Each suspension was adjusted to a fixed size inoculum of 1-5×10^8 CFU/ml with a spectrophotometer (Ferraro, M J National Committee for Clinical Laboratory Standards. 2000).
(§6) Kirby-Bauer disk diffusion susceptibility test protocol was utilized to determine the sensitivity or resistance of pathogenic bacteria against the compounds and others antibiotics. The absence of growth around the disks is an indirect measure of the ability of this compound to inhibit an organism (Kirby, W. et al., Antibiotics Annu. 1956-1957:892). After 18 to 72 hours of incubation at […], with or without CO2, under aerobic or anaerobic conditions, depending on the bacterial species, halo of growth inhibition were obtained and evaluated.
(§7) Interpretation of susceptibility and resistance was based on the presence or absence of a zone of inhibition surrounding the disk. Kirby-Bauer disk diffusion susceptibility test is a common method which uses antibiotic-impregnated wafers to test whether bacteria are affected by antibiotics. The size of the zone of inhibition depends on how effective the antibiotic is at stopping the growth of the bacterium. A stronger antibiotic will create a larger zone, because a lower concentration of the antibiotic is enough to stop growth.

N. carnea = assay: Kirby-Bauer disk diffusion susceptibility test; type: cell-based, Nocardia carnea; settings: N. carnea; zone of inhibition; 200 μg/disc
Experimental: as §4, §5, §6, §7

T. pulmonis = assay: Kirby-Bauer disk diffusion susceptibility test; type: cell-based, Tsukamurella pulmonis; settings: T. pulmonis; zone of inhibition; 200 μg/disc
Experimental: as §4, §5, §6, §7

M. abscessus = assay: Kirby-Bauer disk diffusion susceptibility test; type: cell-based, Mycobacterium abscessus; settings: M. abscessus; zone of inhibition; 200 μg/disc
Experimental: as §4, §5, §6, §7

C. parapsilopsis = assay: Antifungal disk diffusion susceptibility test (CLSI M44); type: cell-based, C. parapsilosis
Experimental: as §1, §2, §3

S. epidermidis = assay: Kirby-Bauer disk diffusion susceptibility test; type: cell-based; settings: S. epidermidis; zone of inhibition; 200 μg/disc
Experimental: as §4, §5, §6, §7

E. faecium = assay: Kirby-Bauer disk diffusion susceptibility test; type: cell-based; settings: E. faecium; zone of inhibition; 200 μg/disc
Experimental: as §4, §5, §6, §7

N. cyriacigeorgica = assay: Kirby-Bauer disk diffusion susceptibility test; type: cell-based; settings: N. cyriacigeorgica; zone of inhibition; 200 μg/disc
Experimental: as §4, §5, §6, §7

E. faecalis = assay: Kirby-Bauer disk diffusion susceptibility test; type: cell-based; settings: E. faecalis; zone of inhibition; 200 μg/disc
Experimental: as §4, §5, §6, §7

E. coli = assay: Kirby-Bauer disk diffusion susceptibility test; type: cell-based; settings: E. coli; zone of inhibition; 200 μg/disc
Experimental: as §4, §5, §6, §7

M. fortuitum = assay: Kirby-Bauer disk diffusion susceptibility test; type: cell-based; settings: M. fortuitum; zone of inhibition; 200 μg/disc
Experimental: as §4, §5, §6, §7

P. aeruginosa = assay: Kirby-Bauer disk diffusion susceptibility test; type: cell-based; settings: P. aeruginosa; zone of inhibition; 200 μg/disc
Experimental: as §4, §5, §6, §7

M. chelonae = assay: Kirby-Bauer disk diffusion susceptibility test; type: cell-based; settings: M. chelonae; zone of inhibition; 200 μg/disc
Experimental: as §4, §5, §6, §7

S. aureus = assay: Kirby-Bauer disk diffusion susceptibility test; type: cell-based; settings: S. aureus; zone of inhibition; 200 μg/disc
Experimental: as §4, §5, §6, §7

[2] = Cellular viability (CellTiter Glo) in parallel to the anti-HIV assay; type: cell-based; settings: human; concentration required to kill 50% of cells; MT-2 cells; read-out: CC50 VIH MT-2
Experimental: All assays for assessing anti-HIV activity were taken in parallel to determine cellular viability of the culture in the presence or absence of different concentrations of the isolated molecule. It was followed exactly the same methodology as in the anti-HIV assay except with the addition of complete DMEM medium instead of supernatant viral, in the same proportion, and the detection of the viability was performed with the viability detection kit CellTiter Glo (Promega), following manufacturer instructions. Viability is directly proportional to the luciferase activity obtained. All data are expressed as percentage relative to a control with DMSO at the same concentration. Antiviral activity and toxicity curves were performed to the compound at different concentrations.

MCF7 cell line (breast) = assay: MTT assay, antitumor activity; type: cell-based
A. baumannii = assay: Kirby-Bauer disk diffusion susceptibility test; type: cell-based; settings: A. baumannii; zone of inhibition; 200 μg/disc
Experimental: as §4, §5, §6, §7

[3] = Human immunodeficiency virus 1, MT2
[4] = Human immunodeficiency virus 1, MT2, read-out: IC50 VIH MT-2

Row | Compound | Activity (mm), 200 μg/disc (A. terreus) [mm] | Activity (mm), 200 μg/disc (C. lusitaniae) [mm] | Activity (mm), 200 μg/disc (A. fumigatus) [mm] | Activity (mm), 200 μg/disc (C. albicans) [mm] | Activity (mm), 200 μg/disc (A. flavus) [mm] | Activity (mm), 200 μg/disc (C. tropicalis) [mm] | Activity (mm), 200 μg/disc (C. glabrata) [mm] | Activity (mm), 200 μg/disc (C. guilliermondii) [mm] | Activity (mm), 200 μg/disc (A. niger) [mm] | IC50 (HIV; [3]) [µM] | IC50 (HIV; [4]) [µM] | safety index (HIV) | Activity (mm), 200 μg/disc (B. cereus) [mm] | Activity (mm), 200 μg/disc (N. carnea) [mm] | Activity (mm), 200 μg/disc (T. pulmonis) [mm] | Activity (mm), 200 μg/disc (M. abscessus) [mm] | Activity (mm), 200 μg/disc (C. parapsilopsis) [mm] | Activity (mm), 200 μg/disc (S. epidermidis) [mm] | Activity (mm), 200 μg/disc (N. cyriacigeorgica) [mm] | Activity (mm), 200 μg/disc (E. coli) [mm] | further results
1 | CCCCCC1=NN(C(=O)CCOC(=O)CCC(=O)O)OC(CCCCC)C1 (centres unmarked) [DOXA-1] | 18 | 38 | 15 | 25 | 20 | 30 | 30 | 38 | 18 | 0.13 | 0.13 | more than 60 | 36 | 40 | 34 | 32 | 30 | 22 | 35 | 9 | Inhibition of cell line ([1]; 750 nM): moderate inhibition; Inhibition of cell line (HT29 cell line (colon); 750 nM): moderate inhibition; Activity (mm), 200 μg/disc (E. faecium): 34 mm; Activity (mm), 200 μg/disc (E. faecalis): 34 mm; Activity (mm), 200 μg/disc (M. fortuitum): 30 mm; Activity (mm), 200 μg/disc (P. aeruginosa): 9 mm; Activity (mm), 200 μg/disc (M. chelonae): 34 mm; Activity (mm), 200 μg/disc (S. aureus): 20 mm; CC50 [2]: 8.2 µM
2 | CCCCCC1=NN(C(=O)CCOC(C)=O)OC(CCCCC)C1 (centres unmarked) [DOXA-2] | 40 | 20 | 30 | 18 | 38 | 20 | 18 | 28 | 40 | 0.084 | 0.084 | about 100 | 20 | 25 | 41 | 25 | 18 | 10 | 26 | 9 | Concentration of optimal inhibition [1]: 100 nM; Concentration at which proliferation was inhibited ([1]; 10-750 nM, 24, 48 and 72 hours): 50 nM; Concentration of best inhibition (HT29 cell line (colon)): 50 nM; Concentration at which proliferation was inhibited (MCF7 cell line (breast)): 250 nM; Activity (mm), 200 μg/disc (A. baumannii): 9 mm; Activity (mm), 200 μg/disc (M. fortuitum): 25 mm; Activity (mm), 200 μg/disc (P. aeruginosa): 9 mm; Activity (mm), 200 μg/disc (M. chelonae): 30 mm; Activity (mm), 200 μg/disc (S. aureus): 10 mm; CC50 [2]: 7.72 µM
